According to US11078202B2, “β-lactamase inhibitor and use thereof” (priority 2018, dated 2021):
Counter-ions that a name gives are not always drawn.

Assays:
Format in all cases: cell-based
[1] = system: Klebsiella pneumoniae XNWB 0006; test: MIC assay of test compounds combined with imipenem (4 μg/mL); details: imipenem 4 μg/mL fixed
In short: (§1)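 MIC determined by CLSI-guided broth microdilution in CAMHB after 16-20 h at 35±2 °C, with growth and sterile control wells. Test compound series co-dosed with fixed-level ceftazidime or imipenem; inoculum from TSA-grown colonies, adjusted to OD600 0.1-0.15 then diluted 300-fold.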

[2] = system: Acinetobacter baumannii XNWB 0007; test: as above; details: imipenem 4 μg/mL fixed
In short: as §1

[3] = system: Klebsiella pneumoniae XNWB 0003; test: as above; details: imipenem 4 μg/mL fixed
In short: as §1

[4] = system: Klebsiella pneumoniae XNWB 0005; test: as above; details: imipenem 4 μg/mL fixed
In short: as §1

[5] = system: Klebsiella pneumoniae XNWB 0001; test: as above; details: imipenem 4 μg/mL fixed
In short: as §1

[6] = system: Klebsiella pneumoniae XNWB 0002; test: as above; details: imipenem 4 μg/mL fixed
In short: as §1

[7] = system: Pseudomonas aeruginosa XNWB 0008; test: as above; details: imipenem 4 μg/mL fixed
In short: as §1

[8] = system: Klebsiella pneumoniae XNWB 0004; test: as above; details: imipenem 4 μg/mL fixed
In short: as §1

[9] = system: Klebsiella pneumoniae XNWB 0006; test: MIC assay of test compounds combined with ceftazidime (8 μg/mL); details: ceftazidime 8 μg/mL fixed
In short: as §1

[10] = system: Acinetobacter baumannii XNWB 0007; test: as above; details: ceftazidime 8 μg/mL fixed
In short: as §1

[11] = system: Klebsiella pneumoniae XNWB 0003; test: as above; details: ceftazidime 8 μg/mL fixed
In short: as §1

[12] = system: Klebsiella pneumoniae XNWB 0005; test: as above; details: ceftazidime 8 μg/mL fixed
In short: as §1

[13] = system: Klebsiella pneumoniae XNWB 0001; test: as above; details: ceftazidime 8 μg/mL fixed
In short: as §1

[14] = system: Klebsiella pneumoniae XNWB 0002; test: as above; details: ceftazidime 8 μg/mL fixed
In short: as §1

[15] = system: Pseudomonas aeruginosa XNWB 0008; test: as above; details: ceftazidime 8 μg/mL fixed
In short: as §1

[16] = system: Klebsiella pneumoniae XNWB 0004; test: as above; details: ceftazidime 8 μg/mL fixed
In short: as §1

Row | Structure (SMILES) | The minimum concentration of test compounds combined with imipenem (4 μg/mL) for bacteriostasis [1] | The minimum concentration of test compounds combined with imipenem (4 μg/mL) for bacteriostasis [2] | The minimum concentration of test compounds combined with imipenem (4 μg/mL) for bacteriostasis [3] | The minimum concentration of test compounds combined with imipenem (4 μg/mL) for bacteriostasis [4] | The minimum concentration of test compounds combined with imipenem (4 μg/mL) for bacteriostasis [5] | The minimum concentration of test compounds combined with imipenem (4 μg/mL) for bacteriostasis [6] | The minimum concentration of test compounds combined with imipenem (4 μg/mL) for bacteriostasis [7] | The minimum concentration of test compounds combined with imipenem (4 μg/mL) for bacteriostasis [8] | The minimum concentration of test compounds combined with ceftazidime (8 μg/mL) for bacteriostasis [9] | The minimum concentration of test compounds combined with ceftazidime (8 μg/mL) for bacteriostasis [10] | The minimum concentration of test compounds combined with ceftazidime (8 μg/mL) for bacteriostasis [11] | The minimum concentration of test compounds combined with ceftazidime (8 μg/mL) for bacteriostasis [12] | The minimum concentration of test compounds combined with ceftazidime (8 μg/mL) for bacteriostasis [13] | The minimum concentration of test compounds combined with ceftazidime (8 μg/mL) for bacteriostasis [14] | The minimum concentration of test compounds combined with ceftazidime (8 μg/mL) for bacteriostasis [15] | The minimum concentration of test compounds combined with ceftazidime (8 μg/mL) for bacteriostasis [16]
1 | CNCCc1cc([C@@H]2CC3(CC3)[C@@H]3CN2C(=O)N3OS(=O)(=O)O)no1 [Example 42, (1R,4S)-4-(5-(2-(methylamino)ethyl)isoxazol-3-yl)-6-oxo-5,7-diazaspiro[bicycle[3.2.1]octane-2,1′-cyclopropan]-7-yl sulfate] | A (A: <8 μg/mL) | C (C: 16-128 μg/mL) | A (A: <8 μg/mL) | A (A: <8 μg/mL) | A (A: <8 μg/mL) | A (A: <8 μg/mL) | B (B: 8-16 μg/mL) | A (A: <8 μg/mL) | A (A: <8 μg/mL) | C (C: 16-128 μg/mL) | A (A: <8 μg/mL) | A (A: <8 μg/mL) | A (A: <8 μg/mL) | A (A: <8 μg/mL) | C (C: 16-128 μg/mL) | B (B: 8-16 μg/mL)
2 | CNCCc1nnc([C@@H]2CC3(CC3)[C@@H]3CN2C(=O)N3OS(=O)(=O)O)o1 [Example 24, (1R,4S)-4-(5-(2-(methylamino)ethyl)-1,3,4-oxadiazol-2-yl)-6-oxo-5,7-diazaspiro[bicyclo[3.2.1]octane-2,1′-cyclopropan]-7-yl sulfate] | A (A: <8 μg/mL) | A (A: <8 μg/mL) | A (A: <8 μg/mL) | A (A: <8 μg/mL) | A (A: <8 μg/mL) | A (A: <8 μg/mL) | B (B: 8-16 μg/mL) | A (A: <8 μg/mL) | A (A: <8 μg/mL) | C (C: 16-128 μg/mL) | A (A: <8 μg/mL) | A (A: <8 μg/mL) | A (A: <8 μg/mL) | A (A: <8 μg/mL) | C (C: 16-128 μg/mL) | A (A: <8 μg/mL)
3 | CNCc1cc([C@@H]2CC3(CC3)[C@@H]3CN2C(=O)N3OS(=O)(=O)O)no1 [Example 32] | A (A: <8 μg/mL) | C (C: 16-128 μg/mL) | A (A: <8 μg/mL) | A (A: <8 μg/mL) | A (A: <8 μg/mL) | A (A: <8 μg/mL) | C (C: 16-128 μg/mL) | A (A: <8 μg/mL) | B (B: 8-16 μg/mL) | C (C: 16-128 μg/mL) | B (B: 8-16 μg/mL) | C (C: 16-128 μg/mL) | B (B: 8-16 μg/mL) | A (A: <8 μg/mL) | C (C: 16-128 μg/mL) | C (C: 16-128 μg/mL)
4 | CNCCNC[C@H](O)c1nnc([C@@H]2CC3(CC3)[C@@H]3CN2C(=O)N3OS(=O)(=O)O)o1 [Example 30, (1R,4S)-4-(5-((S)-1-hydroxy-2-((2-(methylamino)ethyl)amino)ethyl)-1,3,4-oxadiazol-2-yl)-6-oxo-5,7-diazaspiro[bicyclo[3.2.1]octane-2,1′-cyclopropan]-7-yl sulfate] | A (A: <8 μg/mL) | B (B: 8-16 μg/mL) | A (A: <8 μg/mL) | A (A: <8 μg/mL) | A (A: <8 μg/mL) | A (A: <8 μg/mL) | C (C: 16-128 μg/mL) | A (A: <8 μg/mL) | A (A: <8 μg/mL) | C (C: 16-128 μg/mL) | A (A: <8 μg/mL) | B (B: 8-16 μg/mL) | B (B: 8-16 μg/mL) | A (A: <8 μg/mL) | C (C: 16-128 μg/mL) | B (B: 8-16 μg/mL)
5 | N[C@H]1CC[C@@H](c2nnc([C@@H]3CC4(CC4)[C@@H]4CN3C(=O)N4OS(=O)(=O)O)o2)C1 [Example 17, (1R,4S)-4-(5-((1R,3S)-3-aminocyclopentyl)-1,3,4-oxadiazol-2-yl)-6-oxo-5,7-diazaspiro [bicyclo[3.2.1]octane-2,1′-cyclopropan]-7-yl sulfate] | A (A: <8 μg/mL) | B (B: 8-16 μg/mL) | A (A: <8 μg/mL) | A (A: <8 μg/mL) | A (A: <8 μg/mL) | A (A: <8 μg/mL) | A (A: <8 μg/mL) | A (A: <8 μg/mL) | A (A: <8 μg/mL) | C (C: 16-128 μg/mL) | A (A: <8 μg/mL) | A (A: <8 μg/mL) | A (A: <8 μg/mL) | A (A: <8 μg/mL) | B (B: 8-16 μg/mL) | A (A: <8 μg/mL)
